Experimental data reported in US9655875B2, “Method of treating or preventing tumors using 1-(alkylsulfinyl)-2-isothiocyanatoalkyl-1-alkene” (BEIJING UNIVERSITY OF CHEMICAL TECHNOLOGY, priority 2013, dated 2017).
Where two headings read alike, the source gives them in different places.

Tests used:
[1] = test system: human lung adenocarcinoma cells A549; assay: Inhibition rate at 10 μM versus chemotherapeutic drugs, A549 (MTT); format: cell-based; conditions: A549, 10 μM of drug
From the text: (§1) As a drug for target therapy, the erlotinib is applicable to a third-line treatment of locally advanced or metastatic non-small cell lung cancer when two or more than two chemotherapies are failed. Currently, the gemcitabine is clinically utilized as the drug of the first-line therapy in treating advanced non-small cell lung cancer and the metastatic breast cancer. […] 1. Experimental cell lines and related chemical reagents: sources and cultivation of the human lung adenocarcinoma cells A549, the human lung squamous carcinoma cell line H460, the human breast carcinoma cell line MCF-7 are described in the above. […] Then the 96-well plates were transferred into the incubator (37° C., 5% CO2) for culture. […] The anti-tumor effects of the above drugs were measured by the MTT assay. The number of viable cells in the negative control groups at 0 hr was taken as a basis to calculate the anti-tumor effects.

[2] = test system: human lung squamous carcinoma cell line H460; assay: Inhibition rate at 10 μM versus chemotherapeutic drugs, H460 (MTT); format: cell-based; conditions: NCI-H460, H460, 10 μM of drug
From the text: as §1

[3] = test system: human breast carcinoma cell line MCF-7; assay: Inhibition rate at 10 μM versus chemotherapeutic drugs, MCF-7 (MTT); format: cell-based; conditions: MCF7, MCF-7, 10 μM of drug
From the text: as §1

[4] = test system: Human Peripheral Blood Mononuclear Cell (PBMC); assay: Toxicity on peripheral blood mononuclear cells (MTT); format: cell-based; conditions: for Absorbance 490 nm, replicate 1 / Absorbance 490 nm, replicate 2 / Absorbance 490 nm, replicate 3 / Absorbance 490 nm, replicate 4 / Mean value (absorbance) / Cell viability (%): 24 hrs, MTT; for Cell viability (%): relative to negative control
Method: General operations: normal peripheral blood cells were isolated by Ficoll to obtain mononuclear cells. The mononuclear cells were rinsed by the PBS for three times, and added with IMDM+10% FBS to prepare suspensions. […] The suspensions were then inoculated into 96-well plates, with each hole containing 25 thousands cells per 100 μL of the culture medium, and cultured overnight at 37° C.
Treatment: because the proliferation of the PBMCs is very limited and the PBMCs quickly enter a decline phase. Thus, the cell viability was measured by the MTT assay after 24 hrs of culture. […] The group where PBMCs were treated by the sterile deionized water was selected as the negative control group.
1. Experimental cells: normal peripheral blood cells were isolated by Ficoll to obtain mononuclear cells. The mononuclear cells were rinsed by the PBS for three times, added with IMDM+10% FBS to prepare suspensions, […].
2. […] Then the 96-well plates were transferred into an incubator at 37° C. for culture. […] After another 24 hrs of cultivation, 20 μL of MTT was added to each hole, and the plates were incubated for 3 hrs in the incubator (37° C., 5% CO2). Solution in each hole was then removed and replaced by 150 μL of DMSO.

[5] = test system: human lung adenocarcinoma cells A549; assay: MTT growth inhibition of A549 cells (IC50); format: cell-based; conditions: 48 hrs of treatment
Method: (§2) 2. […] Solution in each hole was then removed and replaced by 150 μL of DMSO.

[6] = test system: human lung squamous carcinoma cells H460; assay: MTT growth inhibition of H460 cells (IC50); format: cell-based; conditions: NCI-H460, 48 hrs of treatment
Method: as §2

[7] = test system: human pancreatic cancer cells PANC-1; assay: cells; format: cell-based; conditions: 48 hrs of treatment, MTT, read-out: IC50 on the growth of the PANC-1 cells
Method: as §2

[8] = test system: human breast cancer cells MCF-7; assay: MTT growth inhibition of MCF-7 cells (IC50); format: cell-based; conditions: MCF7, 48 hrs of treatment
Method: as §2

[9] = test system: human liver cancer cells HepG2; assay: MTT growth inhibition of HepG2 cells (IC50); format: cell-based; conditions: 48 hrs of treatment
Method: as §2

[10] = test system: human cervical cancer cells HeLa; assay: MTT growth inhibition of HeLa cells (IC50); format: cell-based; conditions: 48 hrs of treatment
Method: as §2

[11] = test system: human lung squamous carcinoma cells H460 xenograft; assay: H460 xenograft tumor growth in nude mice; format: in vivo; conditions: 75 mg/kg oral, three times each week
Method: 1.1 Preparation of experimental animals: 30 nude mice with equal numbers of females and males were fed in normal conditions in the laboratory for between 3 and 5 days.
Preparation of H460 cells: H460 tumor cells were normally cultured, and diluted using the PBS so as to prepare a suspension of tumor cells having a concentration of 7.5×10^6 tumor cells per milliliter.
1.3 Inoculation of tumor cells: the suspension of the tumor cells was fully shaken and 0.2 mL of the suspension was then sucked by a sterile syringe having a capacity of 1 mL. The tumor cells were then inoculated into armpits of the nude mice via subcutaneous injection. The inoculated mice were then fed for between 2 and 3 days in normal conditions. When the tumor tissue grew to a size with a long axis of approximately 3 mm and a short axis of approximately 2 mm, all the nude mice having the tumor tissues were randomly divided into three groups, which were utilized in subsequent administration experiments.
2.1 Control group: five male mice and five female mice having tumor tissues were orally administered with ultrapure water for three times each week (respectively at Monday, Wednesday, and Friday afternoons), and the administered volume was 0.3 mL for each time.
3.2. Acquisition of sizes of tumor tissues in the nude mice: the sizes of the tumor tissues in the nude mice were measured three times per week (respectively at Monday, Wednesday, and Friday afternoons). An electronic vernier caliper was utilized to measure the long axis and the short axis of the tumor tissues, and an accuracy of the data was 0.01 mm.
3.4 Finish time of the experiments: when the tumor tissues in the nude mice of the control group reach an average size of 1000 mm^3 (Volume=long axis×short axis 2×0.5236), the weights and the sizes of the tumor tissues of the nude mice were recorded, and then the experiments were stopped and the nude mice were treated.
3.5 Treatment of nude mice when finishing the experiments: the nude mice were killed, arranged according to different groups, and photographed. Six representative mice were selected from each group and photographed. Then the tumor tissues were respectively isolated, weighed, placed at corresponding positions, and photographed.

rat cardiomyocytes = conditions: for Relative ratio of ATP/total protein, Mean value (%) / Relative ratio of ATP/total protein, replicate 1 / Relative ratio of ATP/total protein, replicate 2 / Relative ratio of ATP/total protein, replicate 3: both, SD, rat
Method: General operations: 1-2 day old neonatal SD rats (female or male) were selected and cardiomyocytes were isolated in sterile condition. […] The cardiotoxicity of the above drugs were represented by a ratio of ATP/total protein. […] The group where […] were treated by the sterile deionized water was selected as the negative control group.
1. Experimental cells: 1-2 day old neonatal SD rats (female or male) were selected and sterilized. Then ventricular muscles were collected and digested by trypsin to prepare cardiomyocyte suspensions. The suspensions were cultured in the incubator (37° C., 5% CO2), and primary cardiomyocytes were cultured by differential adhesion.
2. […] After another 6 hrs of cultivation, the culture solution in each hole was replaced by the normal culture solution not containing any drugs, and incubated for 42 hrs in the incubator (37° C., 5% CO2). Solution in each hole was then removed, and cells therein were rinsed by the PBS for three times, digested by the trypsin, and gathered into two parts. One part of the cells was utilized to measure the ATP level by the reporter gene assay, and the other part of the cells was utilized to measure the cellular protein concentration by BAC assay. The ratio of ATP (ng) to the protein concentration (μg) was calculated, and the ratio of each experimental group is divided by the ratio of the contrast group to obtain the relative ratio of ATP/total protein, experimental results were listed in Table 4.

[12] = contrast chemotherapeutic drugs, 10 μM (other concentrations)

SMILES: CC(=O)O[C@H]1C(=O)[C@@]2(C)[C@H]([C@H](OC(=O)c3ccccc3)[C@]3(O)C[C@H](OC(=O)[C@H](O)[C@@H](NC(=O)c4ccccc4)c4ccccc4)C(C)=C1C3(C)C)[C@]1(OC(C)=O)CO[C@@H]1C[C@@H]2O [Paclitaxel, paclitaxel]
- inhibition at 10 µM [1]: 28.8%
- inhibition at 10 µM [2]: 17.3%
- inhibition at 10 µM [3]: 89.6%
- Absorbance 490 nm, replicate 1 [4, 12]: 0.712
- Absorbance 490 nm, replicate 2 [4, 12]: 0.743
- Absorbance 490 nm, replicate 3 [4, 12]: 0.683
- Absorbance 490 nm, replicate 4 [4, 12]: 0.650
- Mean value (absorbance) [4, 12]: 0.697
- Cell viability (%) [4, 12]: 87.2%

SMILES: C#Cc1cccc(Nc2ncnc3cc(OCCOC)c(OCCOC)cc23)c1 [Erlotinib, erlotinib]
- inhibition at 10 µM [1]: 30.3%
- inhibition at 10 µM [2]: 33.1%

SMILES: O=c1[nH]cc(F)c(=O)[nH]1 [5-FU, 5-fluorouracil]
- inhibition at 10 µM [3]: 15.8%
- Absorbance 490 nm, replicate 1 [4, 12]: 0.493
- Absorbance 490 nm, replicate 2 [4, 12]: 0.484
- Absorbance 490 nm, replicate 3 [4, 12]: 0.525
- Absorbance 490 nm, replicate 4 [4, 12]: 0.461
- Mean value (absorbance) [4, 12]: 0.491
- Cell viability (%) [4, 12]: 61.4%

SMILES: C[S+]([O-])CCCCN=C=S (centres unmarked) [Sulforaphane, 1-isothiocyanato-4-(methysulfinyl)-butane]
- IC50 [5]: 14.7 µM
- IC50 [6]: 34.6 µM
- IC50 [7]: 6.73 µM
- IC50 [8]: 19.5 µM
- IC50 [9]: 47.3 µM
- IC50 [10]: 25.8 µM
- Tumor volume on 1st day ([11]; day 1): 30.55 mm^3
- Tumor volume on 3rd day ([11]; day 3): 78.81 mm^3
- Tumor volume on 6st day ([11]; day 6): 257.8812 mm^3
- Tumor volume on 8th day ([11]; day 8): 389.6022 mm^3
- Tumor volume on 10th day ([11]; day 10): 552.7308 mm^3
- Absorbance 490 nm, replicate 1 ([4]; 10 μM): 0.702
- Absorbance 490 nm, replicate 2 ([4]; 10 μM): 0.633
- Absorbance 490 nm, replicate 3 ([4]; 10 μM): 0.705
- Absorbance 490 nm, replicate 4 ([4]; 10 μM): 0.593
- Mean value (absorbance) ([4]; 10 μM): 0.658
- Cell viability (%) ([4]; 10 μM): 82.4%
- Absorbance 490 nm, replicate 1 ([4]; 30 μM): 0.655
- Absorbance 490 nm, replicate 2 ([4]; 30 μM): 0.616
- Absorbance 490 nm, replicate 3 ([4]; 30 μM): 0.58
- Absorbance 490 nm, replicate 4 ([4]; 30 μM): 0.628
- Mean value (absorbance) ([4]; 30 μM): 0.620
- Cell viability (%) ([4]; 30 μM): 77.6%
- Absorbance 490 nm, replicate 1 ([4]; 50 μM): 0.663
- Absorbance 490 nm, replicate 2 ([4]; 50 μM): 0.621
- Absorbance 490 nm, replicate 3 ([4]; 50 μM): 0.610
- Absorbance 490 nm, replicate 4 ([4]; 50 μM): 0.610
- Mean value (absorbance) ([4]; 50 μM): 0.626
- Cell viability (%) ([4]; 50 μM): 78.4%
- Effect on the proliferation of the PBMCs ([4]; Table 3 summary): certain effect on the proliferation of the cells
- Relative ratio of ATP/total protein, Mean value (%) (rat cardiomyocytes; 10 μM): 89.87%
- Relative ratio of ATP/total protein, replicate 1 (rat cardiomyocytes; 10 μM): 90.0%
- Relative ratio of ATP/total protein, replicate 2 (rat cardiomyocytes; 10 μM): 88.2%
- Relative ratio of ATP/total protein, replicate 3 (rat cardiomyocytes; 10 μM): 91.4%
- Relative ratio of ATP/total protein, Mean value (%) (rat cardiomyocytes; 30 μM): 83.33%
- Relative ratio of ATP/total protein, replicate 1 (rat cardiomyocytes; 30 μM): 85.1%
- Relative ratio of ATP/total protein, replicate 2 (rat cardiomyocytes; 30 μM): 83.3%
- Relative ratio of ATP/total protein, replicate 3 (rat cardiomyocytes; 30 μM): 81.6%
- Relative ratio of ATP/total protein, Mean value (%) (rat cardiomyocytes; 50 μM): 76.03%
- Relative ratio of ATP/total protein, replicate 1 (rat cardiomyocytes; 50 μM): 77.5%
- Relative ratio of ATP/total protein, replicate 2 (rat cardiomyocytes; 50 μM): 76.7%
- Relative ratio of ATP/total protein, replicate 3 (rat cardiomyocytes; 50 μM): 73.9%

SMILES: COc1cccc2c1C(=O)c1c(O)c3c(c(O)c1C2=O)C[C@@](O)(C(=O)CO)C[C@@H]3O[C@H]1C[C@H](N)[C@H](O)[C@H](C)O1 [Adriamycin, adriamycin]
- Absorbance 490 nm, replicate 1 [4, 12]: 0.482
- Absorbance 490 nm, replicate 2 [4, 12]: 0.482
- Absorbance 490 nm, replicate 3 [4, 12]: 0.496
- Absorbance 490 nm, replicate 4 [4, 12]: 0.530
- Mean value (absorbance) [4, 12]: 0.498
- Cell viability (%) [4, 12]: 62.3%
- Toxicity on the cardiomyocytes (rat cardiomyocytes): obvious toxicity on the cardiomyocytes
- Relative ratio of ATP/total protein, Mean value (%) (rat cardiomyocytes; 10 μM): 46.97%
- Relative ratio of ATP/total protein, replicate 1 (rat cardiomyocytes; 10 μM): 47.3%
- Relative ratio of ATP/total protein, replicate 2 (rat cardiomyocytes; 10 μM): 43.1%
- Relative ratio of ATP/total protein, replicate 3 (rat cardiomyocytes; 10 μM): 50.5%

SMILES: Nc1ccn([C@@H]2O[C@H](CO)[C@@H](O)C2(F)F)c(=O)n1 [Gemcitabine, gemcitabine]
- inhibition at 10 µM [1]: 6.9%
- inhibition at 10 µM [2]: 4.3%
- inhibition at 10 µM [3]: 40.1%
